Results taken from patent US20220220115A1, “HETEROCYCLIC COMPOUNDS AND USES THEREOF” (Nuvation Bio Inc., priority 2019, published 2022).

Key:
WEE1 kinase enzyme = molecular target: T1, WEE1 kinase enzyme (Homo sapiens, UniProt P30291); assay: WEE1 IC50 determination, LanthaScreen Terbium Labeled TR-FRET kinase assay; format: biochemical; conditions: WEE1 enzyme 1 nM, ATP 10 μM
T1 construct: purchased Invitrogen, Life Technologies PR7373A
Experimental: IC50 values of compounds against WEE1 kinase enzyme were determined by LanthaScreen™ Terbium Labeled TR-FRET assay. Kinase assays were performed in 1× kinase buffer (#PV6135, Invitrogen, Life Technologies Grand Island, N.Y.) where total reaction volume was 10 μL in low-volume 384-well plates (#4511, Corning). Serially diluted compounds (3-fold) were incubated with WEE1 Enzyme (1 nM) (#PR7373A, Invitrogen, Life Technologies Grand Island, N.Y.) for 10 min, and a mixture of ATP (10 μM) (#A1852, Sigma, St. Louis, Mo.) and fluorescent-PolyGT substrate (200 nM) (#PV3610, Invitrogen, Life Technologies, Grand Island, N.Y.) was added and incubated in dark at room temperature for 1 h. After 1 h, 10 μL stop solution containing Terbium labeled antibody (4 nM) (#PV3529, Invitrogen, Life Technologies Grand Island, N.Y.) and EDTA (#E5134, Sigma, St. Louis, Mo.) (20 mM) in TR-FRET dilution buffer (#PV3574, Invitrogen, Life Technologies, Grand Island, N.Y.) was added. Readings were taken in a Synergy Neo Plate reader (BioTek, Winooski, Vt.) at single excitation of 340 nm and dual emission at 495 nm and 520 nm respectively.
The % activity of test samples was calculated as (Sample−Min)*100/(Max−Min). [Max: DMSO control, complete reaction with enzyme & DMSO and Min: No enzyme & DMSO]. Percent inhibition (100−% activity) was fitted to the “four-parameter logistic model” in XLfit for determination of IC50 values.

A427 cell line = assay: Cytotoxicity assay in A427 cell line (resazurin); format: cell-based; conditions: Homo sapiens, A-427, A427 cells, 72 hr incubation, inhibition of proliferation
Experimental: A427 (HTB-53; ATCC), a lung epithelial cell line, was seeded in medium (MEM, 41090101; Gibco) at a cell count of 1500 cells per 100 μL per well in a 96 well edge plate (167425; ThermoFisher). Cells were allowed to grow at 37° C. for 24 hr in 5% CO2 environment (culture conditions) in a Nuaire incubator (humidified). Serially diluted test compounds (100 μL) within the desired testing concentration ranges were added to the culture plate and the cells were further incubated in culture conditions for 72 hr. The experiment was terminated at the designated incubation time by replacing the medium with 100 μL of 1 mM of resazurin (R7017; Sigma) prepared in culture medium, and the plates were further incubated in culture conditions for 4-6 hr. Fluorescence was recorded using a multimodal plate reader (Biotek Synergy Neo) at an excitation wavelength of 535 nm and emission wavelength of 590 nm to obtain relative fluorescence units. Data were analysed as follows: the background fluorescence (blank containing only medium) value was subtracted from each reading and normalized with the vehicle control (DMSO treated cells) to obtain percent survival/proliferation. Percent survival was subtracted from 100 to get the percent inhibition of proliferation which was used to calculate IC50 values. Potency of compounds in other cell lines (such as A549, As-Pc-1, Panc 10.05, A172, U-87 MG) may be determined in an analogous manner.

[1] = tested on: phospho-CDC2 (Tyr15) in A427 cells; assay: Phospho-CDC2 (Tyr15) sandwich ELISA in A427 cells; format: cell-based; conditions: Homo sapiens, A-427, treatment for a specified time (e.g., 24 hr)
Experimental: Changes in the levels of phospho-CDCl2 following treatment of cells with test compounds were assessed by enzyme-linked immunosorbent assay (ELISA). A427 cells were plated in 6-well plates and cultured for 24 hr to approximately 80-90% confluency. Medium was replaced, and the cells were treated with the vehicle control or the test compound at several different concentrations. After incubation of treated cells in cell culture conditions for a specified time (e.g., 24 hr), cells were rinsed with ice-cold PBS and lysed in 1× cell lysis buffer containing protease inhibitors and phosphatase inhibitors. The cells were scraped from the plate with a cell scraper after a brief incubation on ice and transferred to a centrifuge tube, and then subjected to three freeze-thaw cycles in liquid nitrogen and a 37° C. water bath for further lysis. The lysates were centrifuged to pellet cell debris (using, for example, a 10 min centrifugation of 2000×g at 4° C.) and the supernatants transferred to fresh tubes on ice. The protein concentrations of the samples were estimated by the Bradford method or equivalent. The ELISA was carried out with the PathScan® Phospho-CDCl2 (Tyr15) Sandwich ELISA Kit (Cat. #7176, Cell Signaling Technology, Danvers, Mass.) according to the manufacturer's instructions.

T1 sequence (P30291 whole entry): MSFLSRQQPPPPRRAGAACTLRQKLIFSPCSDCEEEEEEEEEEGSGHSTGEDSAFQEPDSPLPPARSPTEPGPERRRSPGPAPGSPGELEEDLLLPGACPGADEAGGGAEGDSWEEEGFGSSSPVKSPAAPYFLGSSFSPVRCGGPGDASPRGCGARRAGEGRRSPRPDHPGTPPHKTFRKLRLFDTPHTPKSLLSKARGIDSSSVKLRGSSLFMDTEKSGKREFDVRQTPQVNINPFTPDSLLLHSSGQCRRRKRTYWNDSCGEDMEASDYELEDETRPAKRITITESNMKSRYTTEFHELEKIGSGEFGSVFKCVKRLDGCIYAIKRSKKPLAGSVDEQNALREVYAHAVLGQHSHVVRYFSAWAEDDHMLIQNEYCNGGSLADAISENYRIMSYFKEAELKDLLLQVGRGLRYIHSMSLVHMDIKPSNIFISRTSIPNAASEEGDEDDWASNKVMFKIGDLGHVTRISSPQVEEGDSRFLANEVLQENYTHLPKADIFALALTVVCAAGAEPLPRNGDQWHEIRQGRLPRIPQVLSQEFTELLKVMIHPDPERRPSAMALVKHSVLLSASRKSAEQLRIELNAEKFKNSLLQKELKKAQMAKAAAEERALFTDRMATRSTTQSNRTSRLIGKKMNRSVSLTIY

IC50 (WEE1 kinase enzyme) [nM] | IC50 [1] [nM] | SMILES | IC50 (A427 cell line) [nM]
5 | – | CC(C)(C#N)c1cccc(-n2c3nc(Nc4ccc5c(c4)CCNC5(C)C)ncc3c(=O)n2CC(F)(F)F)n1 [Compound No. 1.33, 2-(6-(6-(1,1-dimethyl-1,2,3,4-tetrahydroisoquinolin-6-ylamino)-3-oxo-2-(2,2,2-trifluoroethyl)-2,3-dihydro-1H-pyrazolo[3,4-d]pyrimidin-1-yl)pyridin-2-yl)-2-methylpropanenitrile] | 513
1 | – | O=c1c2cnc(Nc3ccc4c(c3)CCNC4)nc2n(-c2cccc(C3(CO)CC3)n2)n1CC(F)(F)F [1.225, 1-(6-(1-(hydroxymethyl)cyclopropyl)pyridin-2-yl)-6-(1,2,3,4-tetrahydroisoquinolin-6-ylamino)-2-(2,2,2-trifluoroethyl)-1H-pyrazolo[3,4-d]pyrimidin-3(2H)-one] | 375
8 | – | CC(C)n1c(=O)c2cnc(Nc3ccc4c(c3)CCNC4)nc2n1-c1csc(N2CCOCC2)n1 [Compound No. 1.3, 2-isopropyl-1-(2-morpholinothiazol-4-yl)-6-((1,2,3,4-tetrahydroisoquinolin-6-yl)amino)-1,2-dihydro-3H-pyrazolo[3,4-d]pyrimidin-3-one] | > 30000
57 | – | CC(C)n1c(=O)c2cnc(Nc3ccc4c(c3)CNCC4)nc2n1-c1csc(N2CCOCC2)n1 [Compound No. 1.7, 2-isopropyl-1-(2-morpholinothiazol-4-yl)-6-((1,2,3,4-tetrahydroisoquinolin-7-yl)amino)-1,2-dihydro-3H-pyrazolo[3,4-d]pyrimidin-3-one] | > 30000
4 | 57 | CC(C)n1c(=O)c2cnc(Nc3ccc4c(c3)CNCC4)nc2n1-c1cccc(C2(CO)CC2)n1 [1.224, 1-(6-(1-(hydroxymethyl)cyclopropyl)pyridin-2-yl)-2-isopropyl-6-((1,2,3,4-tetrahydroisoquinolin-7-yl)amino)-1,2-dihydro-3H-pyrazolo[3,4-d]pyrimidin-3-one] | 243
19 | – | CC(C)(C)c1csc(-n2c3nc(Nc4ccc5c(c4)CCNC5)ncc3c(=O)n2CC(F)(F)F)n1 [Compound No. 1.11, 1-(4-(tert-butyl)thiazol-2-yl)-6-((1,2,3,4-tetrahydroisoquinolin-6-yl)amino)-2-(2,2,2-trifluoroethyl)-1,2-dihydro-3H-pyrazolo[3,4-d]pyrimidin-3-one] | 1580
3 | – | CC(C)(C)c1csc(-n2c3nc(Nc4ccc5c(c4)CNCC5)ncc3c(=O)n2CC(F)(F)F)n1 [Compound No. 1.12, 1-(4-(tert-butyl)thiazol-2-yl)-6-((1,2,3,4-tetrahydroisoquinolin-7-yl)amino)-2-(2,2,2-trifluoroethyl)-1,2-dihydro-3H-pyrazolo[3,4-d]pyrimidin-3-one] | 2370
3 | – | CCn1c(=O)c2cnc(Nc3ccc4c(c3)CCNC4)nc2n1-c1cccc(C(C)(C)C#N)n1 [Compound No. 1.4, 2-(6-(2-ethyl-3-oxo-6-((1,2,3,4-tetrahydroisoquinolin-6-yl)amino)-2,3-dihydro-1H-pyrazolo[3,4-d]pyrimidin-1-yl)pyridin-2-yl)-2-methylpropanenitrile] | 320

Further lines, the compound ahead of its results:

SMILES | IC50 (WEE1 kinase enzyme) [nM] | IC50 [1] [nM] | IC50 (A427 cell line) [nM]
CC(C)(C#N)c1cccc(-n2c3nc(Nc4ccc5c(c4)CNCC5)ncc3c(=O)n2CC(F)(F)F)n1 [Compound No. 1.32, 2-methyl-2-(6-(3-oxo-6-(1,2,3,4-tetrahydroisoquinolin-7-ylamino)-2-(2,2,2-trifluoroethyl)-2,3-dihydro-1H-pyrazolo[3,4-d]pyrimidin-1-yl)pyridin-2-yl)propanenitrile] | 10 | – | 223
CCn1c(=O)c2cnc(Nc3ccc4c(c3)CNCC4)nc2n1-c1nc(C(C)(C)C)cs1 [Compound No. 1.8, 1-(4-(tert-butyl)thiazol-2-yl)-2-ethyl-6-((1,2,3,4-tetrahydroisoquinolin-7-yl)amino)-1,2-dihydro-3H-pyrazolo[3,4-d]pyrimidin-3-one] | 4 | – | 993
CC(C)(C)c1csc(-n2c3nc(Nc4ccc5c(c4)CCNC5)ncc3c(=O)n2C2CC2)n1 [Compound No. 1.5, 1-(4-(tert-butyl)thiazol-2-yl)-2-cyclopropyl-6-((1,2,3,4-tetrahydroisoquinolin-6-yl)amino)-1,2-dihydro-3H-pyrazolo[3,4-d]pyrimidin-3-one] | 18 | – | 1270
CCn1c(=O)c2cnc(Nc3ccc4c(c3)CCNC4)nc2n1-c1nc(C(C)(C)C)cs1 [Compound No. 1.10, 1-(4-(tert-butyl)thiazol-2-yl)-2-ethyl-6-((1,2,3,4-tetrahydroisoquinolin-6-yl)amino)-1,2-dihydro-3H-pyrazolo[3,4-d]pyrimidin-3-one] | 7 | – | 1490
CC(C)(CF)c1cccc(-n2c3nc(Nc4ccc5c(c4)CCNC5(C)C)ncc3c(=O)n2C2CC2)n1 [Compound No. 1.79, 2-cyclopropyl-6-((1,1-dimethyl-1,2,3,4-tetrahydroisoquinolin-6-yl)amino)-1-(6-(1-fluoro-2-methylpropan-2-yl)pyridin-2-yl)-1,2-dihydro-3H-pyrazolo[3,4-d]pyrimidin-3-one] | 9 | – | 970
CCn1c(=O)c2cnc(Nc3ccc4c(c3)CNCC4)nc2n1-c1cccc(C(C)(C)C#N)n1 [Compound No. 1.223, 2-(6-(2-ethyl-3-oxo-6-(1,2,3,4-tetrahydroisoquinolin-7-ylamino)-2,3-dihydro-1H-pyrazolo[3,4-d]pyrimidin-1-yl)pyridin-2-yl)-2-methylpropanenitrile] | 7 | – | 102
CC(C)(C)c1csc(-n2c3nc(Nc4ccc5c(c4)CNCC5)ncc3c(=O)n2C2CC2)n1 [Compound No. 1.6, 1-(4-(tert-butyl)thiazol-2-yl)-2-cyclopropyl-6-((1,2,3,4-tetrahydroisoquinolin-7-yl)amino)-1,2-dihydro-3H-pyrazolo[3,4-d]pyrimidin-3-one] | 6 | 1120 | 1140
CC(C)n1c(=O)c2cnc(Nc3ccc4c(c3)CCNC4)nc2n1-c1nc(C(C)(C)C)cs1 [Compound No. 1.1, 1-(4-(tert-butyl)thiazol-2-yl)-2-isopropyl-6-((1,2,3,4-tetrahydroisoquinolin-6-yl)amino)-1,2-dihydro-3H-pyrazolo[3,4-d]pyrimidin-3-one] | 4 | – | 530
CC(C)n1c(=O)c2cnc(Nc3ccc4c(c3)CNCC4)nc2n1-c1nc(C(C)(C)C)cs1 [Compound No. 1.2, 1-(4-(tert-butyl)thiazol-2-yl)-2-isopropyl-6-((1,2,3,4-tetrahydroisoquinolin-7-yl)amino)-1,2-dihydro-3H-pyrazolo[3,4-d]pyrimidin-3-one] | < 0.2 | – | 585
